Tests used:
AML12 hepatocytes = assay: UA production by AML12 cells stimulated with UA precursors; format: cell-based; settings: for maximum reduction of UA production: guanosine + inosine (GI mixture) 100 µM each, 2 h, vs control (0 µM); for UA production: UA precursor xanthine
Experimental: AML12 hepatocytes used in this study were acquired from ATCC (CRL-2254), Manassas, VA, USA. AML12 cells were maintained in DMEM/F-12 (Life Technologies, Grand Island, NY, USA) supplemented with 10% (v/v) fetal bovine serum (FBS; Hyclone, Logan, UT, USA), recombinant human insulin (5 µg/mL), human transferrin (5 µg/mL), and dexamethasone (40 ng/mL), each obtained from FUJIFILM Wako, as well as selenium (3 ng/mL, Sigma-Aldrich) and penicillin–streptomycin mixed solution (100 U/mL penicillin and 100 µg/mL streptomycin, Nacalai Tesque), under a humidified atmosphere of 5% CO2 at 37 °C. Culture of AML12 hepatocytes and measurement of UA production were conducted following a previously reported protocol.Cells were seeded at a density of 1.0 × 10^5 cells per well in 24-well plates and cultured for 72 h in complete medium, followed by 24 h in serum-free DMEM/F-12. After serum deprivation, cells were rinsed once with calcium- and magnesium-free phosphate-buffered saline [PBS (–)] and incubated in 200 µL of balanced salt solution (BSS) containing […], 5 mM KCl, 1 mM MgCl2, 0.8 mM CaCl2, 25 mM NaHCO3, 1 mM NaH2PO4, 10 mM HEPES, and 5 mM glucose. […] The final concentration of DMSO in all samples was adjusted to 0.15%. After a 2-h incubation, 200 µL of the reaction mixture was collected for UA quantification. The UA concentration in BSS was used as an indicator of UA production. Subsequently, cells were washed with PBS (–) and lysed in 300 µL of buffer containing 50 mM Tris and 1 mM sodium phosphate (pH 7.5). Lysates were sonicated and centrifuged (12,000× g, 5 min, 4 °C), and the supernatants were used for protein quantification using the Pierce™ BCA Protein Assay Kit (Thermo Fisher Scientific Inc., Waltham, MA, USA). UA levels were measured using the uricase-based Uric Acid C-Test Wako (FUJIFILM Wako). UA production was expressed as nanomoles per 2 h per milligram of cellular protein (nmol/2 h/mg protein).

[1] = tested on: hepatic XO protein expression; assay: Western blot of hepatic XO protein expression; format: in vivo, male ICR mice; settings: three days, normalized to GAPDH
Experimental: The antihyperuricemic effect of tiliroside was evaluated using mice with purine-induced hyperuricemia, following a previously described procedure. […] The test compounds were suspended in 0.2 mL of 0.5% CMC-Na based on the average body weight of each group. The actual volume administered was adjusted according to the individual body weight of each mouse. Prior to each administration, the mice were fasted for four hours. The negative and hyperuricemic control groups received the vehicle (0.5% CMC-Na) alone. […] GMP and IMP were dissolved in 0.2 mL of PBS (–) based on the average body weight of all mice. The injection volume was similarly adjusted according to each mouse’s body weight. These injections were performed one hour after the final oral administration of the test compounds or vehicle. The negative control group received PBS (–) alone. […] The liver and kidneys were then excised. Blood samples were centrifuged at 5000× g for 10 min at 4 °C to obtain plasma, which was stored at −80 °C until analysis. Liver samples preparation was performed according to the methods previously described. Each portion of the liver tissue was processed for a specific analysis. One portion was homogenized in ice-cold 100 mM Tris-HCl buffer (pH 7.5), followed by sonication and centrifugation at 10,000× g for 5 min at 4 °C. The resulting supernatant was collected for the determination of UA levels. […]

NPT4 = assay: Renal mRNA expression, real-time quantitative PCR; format: in vivo, male ICR mice; settings: three days
Experimental: (§1) The antihyperuricemic effect of tiliroside was evaluated using mice with purine-induced hyperuricemia, following a previously described procedure. […] The test compounds were suspended in 0.2 mL of 0.5% CMC-Na based on the average body weight of each group. The actual volume administered was adjusted according to the individual body weight of each mouse. Prior to each administration, the mice were fasted for four hours. The negative and hyperuricemic control groups received the vehicle (0.5% CMC-Na) alone. […] GMP and IMP were dissolved in 0.2 mL of PBS (–) based on the average body weight of all mice. The injection volume was similarly adjusted according to each mouse’s body weight. These injections were performed one hour after the final oral administration of the test compounds or vehicle. The negative control group received PBS (–) alone. […] The liver and kidneys were then excised. Blood samples were centrifuged at 5000× g for 10 min at 4 °C to obtain plasma, which was stored at −80 °C until analysis. To assess renal gene expression, four mice per group were selected based on plasma UA levels approximating the group mean. Total RNA was extracted from kidney tissues of the negative control, hyperuricemic model, allopurinol-treated, and high-dose tiliroside-treated groups using the Trizol-chloroform method (Thermo Fisher Scientific). Reverse transcription was performed with 1 µg of RNA using iScript reverse transcriptase (Bio-Rad, Hercules, CA, USA). Quantitative PCR was conducted using the MyiQ2 real-time PCR system (Bio-Rad), with GAPDH as the reference gene.

OAT1 = assay: Renal mRNA expression, real-time quantitative PCR; format: in vivo, male ICR mice; settings: three days
Experimental: as §1

URAT1 = assay: Renal mRNA expression, real-time quantitative PCR; format: in vivo, male ICR mice; settings: three days, vs hyperuricemic control
Experimental: as §1

SMILES	maximum reduction of UA production (AML12 hepatocytes; 1 µM)	hepatic XO protein expression ([1]; 10 mg/kg oral)	renal NPT4 mRNA expression (NPT4; 10 mg/kg oral)	renal OAT1 mRNA expression (OAT1; 10 mg/kg oral)	renal URAT1 mRNA expression (URAT1; 10 mg/kg oral)	UA production (AML12 hepatocytes; 10 µM) [nmol/2 h/mg protein]	UA production (AML12 hepatocytes; 30 µM) [nmol/2 h/mg protein]	UA production (AML12 hepatocytes; 100 µM) [nmol/2 h/mg protein]	maximum reduction of UA production (AML12 hepatocytes; 100 µM)	hepatic XO protein expression ([1]; all tested doses (50, 100, and 300 mg/kg) oral)	renal NPT4 mRNA expression (NPT4; 300 mg/kg oral)	renal OAT1 mRNA expression (OAT1; 300 mg/kg oral)	renal URAT1 mRNA expression (URAT1; 300 mg/kg oral)
Oc1ncnc2[nH]ncc12 [Allopurinol, allopurinol, reference compound]	approximately 94.6%	No statistically significant differences	no significant differences	no significant differences	significantly downregulated								
O=C(/C=C/c1ccc(O)cc1)OC[C@H]1O[C@@H](Oc2c(-c3ccc(O)cc3)oc3cc(O)cc(O)c3c2=O)[C@H](O)[C@@H](O)[C@@H]1O [Tiliroside, kaempferol-3-O-(6′′-p-coumaroyl)-glucoside]						82.7 ± 2.4	45.4 ± 1.8	28.0 ± 1.2	approximately 86.6%	No statistically significant differences	no significant differences	no significant differences	significantly downregulated
